Measured values published in PMC4381037 (The FEBS journal, 2009).

Biological target: T1, His6-RMDPa (Pseudomonas aeruginosa, UniProt Q9HTB6)
T1 sequence (Q9HTB6 2-304 limits assumed): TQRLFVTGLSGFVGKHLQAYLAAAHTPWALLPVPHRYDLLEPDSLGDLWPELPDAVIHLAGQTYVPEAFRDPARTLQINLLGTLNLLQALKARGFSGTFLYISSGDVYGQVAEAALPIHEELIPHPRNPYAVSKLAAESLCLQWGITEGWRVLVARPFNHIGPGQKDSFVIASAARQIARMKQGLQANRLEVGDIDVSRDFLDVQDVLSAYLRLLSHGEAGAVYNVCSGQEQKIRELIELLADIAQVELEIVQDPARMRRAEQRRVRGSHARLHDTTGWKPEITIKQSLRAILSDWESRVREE
Assay: capillary electrophoresis and NMR of product
Format: biochemical
Details: with GDP-6-deoxy-D-lyxo-hexos-4-ulose; hydride donor; 37 °C, pH 7.5

Structure (SMILES): NC(=O)C1=CN([C@@H]2O[C@H](COP(=O)(O)OP(=O)(O)OC[C@H]3O[C@@H](n4cnc5c(N)ncnc54)[C@H](OP(=O)(O)O)[C@@H]3O)[C@@H](O)[C@H]2O)C=CC1 [NADPH]
- capillary electrophoresis and NMR of product: in the presence of excess NADPH, His6-RMDPa catalyzed the conversion
